# Measured values: the supplement of paper PMC10307832
# Columns and labels:
# Experiment in all cases: relative viability (nuclei count vs DMSO), 5 days (fraction); higher = more cells survive
# [1] = system: A-427
# Method in brief: (§1)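 Medians of duplicate plates are given as relative viability. That measure is the nuclei count in treated wells divided by the count in vehicle wells. Counts were taken on 4× images of lung cancer cell lines in 1536-well plates, 5 days after pin-tool dosing the day after seeding with one drug alone or a fixed anchor-drug dose plus five library-drug doses (not always all listed) in √10 steps.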
# [2] = system: NCI-H1915
# Method in brief: as §1
# [3] = system: HARA
# Method in brief: as §1
# [4] = system: NCI-H2405
# Method in brief: as §1
# [5] = system: NCI-H1993
# Method in brief: as §1
# [6] = system: RERF-LC-KJ
# Method in brief: as §1
# [7] = system: NCI-H838
# Method in brief: as §1
# [8] = system: LOU-NH91
# Method in brief: as §1
# [9] = system: LU99A
# Method in brief: as §1
# [10] = system: NCI-H1975
# Method in brief: as §1
# [11] = system: COR-L23
# Method in brief: as §1
# [12] = system: SW 1573
# Method in brief: as §1
# [13] = system: NCI-H1666
# Method in brief: as §1
# [14] = system: NCI-H1650
# Method in brief: as §1
# [15] = system: BEN
# Method in brief: as §1
# [16] = system: NCI-H2228
# Method in brief: as §1
# [17] = system: NCI-H1793
# Method in brief: as §1
# [18] = system: EKVX
# Method in brief: as §1
# [19] = system: NCI-H2023
# Method in brief: as §1
# [20] = system: NCI-H650
# Method in brief: as §1
# [21] = system: NCI-H460
# Method in brief: as §1
# [22] = system: NCI-H1395
# Method in brief: as §1
smiles,measurement,setting,value
COCC1(CO)C(=O)C2CCN1CC2 (centres undefined) [PRIMA-1MET] + CC(=O)Nc1cccc(-n2c(=O)n(C3CC3)c(=O)c3c(Nc4ccc(I)cc4F)n(C)c(=O)c(C)c32)c1 [Trametinib] (partner 0.02 µM),relative viability,[1]; first compound 0.2 µM,0.533
same,relative viability,[1]; first compound 0.6325 µM,0.585
same,relative viability,[1]; first compound 2 µM,0.786
same,relative viability,[1]; first compound 6.325 µM,0.692
same,relative viability,[1]; first compound 20 µM,0.785
same,relative viability,[2]; first compound 0.2 µM,0.166
same,relative viability,[2]; first compound 0.6325 µM,0.246
same,relative viability,[2]; first compound 2 µM,0.248
same,relative viability,[2]; first compound 6.325 µM,0.218
same,relative viability,[2]; first compound 20 µM,0.31
same,relative viability,[3]; first compound 0.2 µM,0.403
same,relative viability,[3]; first compound 0.6325 µM,0.754
same,relative viability,[3]; first compound 2 µM,0.647
same,relative viability,[3]; first compound 6.325 µM,0.529
same,relative viability,[3]; first compound 20 µM,0.736
same,relative viability,[4]; first compound 0.2 µM,0.399
same,relative viability,[4]; first compound 0.6325 µM,0.598
same,relative viability,[4]; first compound 6.325 µM,0.463
same,relative viability,[4]; first compound 20 µM,0.0947
same,relative viability,[5]; first compound 0.2 µM,0.619
same,relative viability,[5]; first compound 2 µM,0.588
same,relative viability,[5]; first compound 6.325 µM,0.534
same,relative viability,[5]; first compound 20 µM,0.514
same,relative viability,[6]; first compound 0.2 µM,0.858
same,relative viability,[6]; first compound 0.6325 µM,0.849
same,relative viability,[6]; first compound 2 µM,0.821
same,relative viability,[6]; first compound 6.325 µM,0.951
same,relative viability,[6]; first compound 20 µM,0.826
same,relative viability,[7]; first compound 0.2 µM,0.55
same,relative viability,[7]; first compound 0.6325 µM,0.523
same,relative viability,[7]; first compound 2 µM,0.416
same,relative viability,[7]; first compound 6.325 µM,0.553
same,relative viability,[7]; first compound 20 µM,0.557
same,relative viability,[8]; first compound 0.2 µM,0.842
same,relative viability,[8]; first compound 0.6325 µM,0.801
same,relative viability,[8]; first compound 2 µM,0.793
same,relative viability,[8]; first compound 6.325 µM,0.831
same,relative viability,[8]; first compound 20 µM,0.535
same,relative viability,[9]; first compound 0.2 µM,0.314
same,relative viability,[9]; first compound 0.6325 µM,0.573
same,relative viability,[9]; first compound 2 µM,0.502
same,relative viability,[9]; first compound 6.325 µM,0.261
same,relative viability,[9]; first compound 20 µM,0.21
same,relative viability,[10]; first compound 0.2 µM,0.362
same,relative viability,[10]; first compound 0.6325 µM,0.232
same,relative viability,[10]; first compound 2 µM,0.277
same,relative viability,[10]; first compound 6.325 µM,0.351
same,relative viability,[10]; first compound 20 µM,0.457
same,relative viability,[11]; first compound 0.2 µM,0.247
same,relative viability,[11]; first compound 0.6325 µM,0.532
same,relative viability,[11]; first compound 2 µM,0.495
same,relative viability,[11]; first compound 6.325 µM,0.357
same,relative viability,[11]; first compound 20 µM,0.0237
same,relative viability,[12]; first compound 0.2 µM,0.604
same,relative viability,[12]; first compound 0.6325 µM,0.54
same,relative viability,[12]; first compound 2 µM,0.409
same,relative viability,[12]; first compound 6.325 µM,0.0772
same,relative viability,[12]; first compound 20 µM,0.024
same,relative viability,[13]; first compound 0.2 µM,0.886
same,relative viability,[13]; first compound 0.6325 µM,0.815
same,relative viability,[13]; first compound 2 µM,0.965
same,relative viability,[13]; first compound 6.325 µM,0.759
same,relative viability,[13]; first compound 20 µM,0.877
same,relative viability,[14]; first compound 0.2 µM,0.545
same,relative viability,[14]; first compound 0.6325 µM,0.48
same,relative viability,[14]; first compound 2 µM,0.636
same,relative viability,[14]; first compound 6.325 µM,0.595
same,relative viability,[14]; first compound 20 µM,0.0646
same,relative viability,[15]; first compound 0.2 µM,1.12
same,relative viability,[15]; first compound 0.6325 µM,0.926
same,relative viability,[15]; first compound 6.325 µM,1.03
same,relative viability,[15]; first compound 20 µM,1.07
same,relative viability,[16]; first compound 0.2 µM,0.197
same,relative viability,[16]; first compound 0.6325 µM,0.371
same,relative viability,[16]; first compound 2 µM,0.822
same,relative viability,[16]; first compound 6.325 µM,0.335
same,relative viability,[16]; first compound 20 µM,0.0574
same,relative viability,[17]; first compound 0.2 µM,0.365
same,relative viability,[17]; first compound 0.6325 µM,0.41
same,relative viability,[17]; first compound 6.325 µM,0.361
same,relative viability,[17]; first compound 20 µM,0.517
same,relative viability,[18]; first compound 0.2 µM,0.344
same,relative viability,[18]; first compound 2 µM,0.283
same,relative viability,[18]; first compound 6.325 µM,0.233
same,relative viability,[18]; first compound 20 µM,0.243
same,relative viability,[19]; first compound 0.2 µM,0.681
same,relative viability,[19]; first compound 0.6325 µM,0.556
same,relative viability,[19]; first compound 2 µM,0.603
same,relative viability,[19]; first compound 6.325 µM,0.711
same,relative viability,[19]; first compound 20 µM,0.546
same,relative viability,[20]; first compound 0.2 µM,0.58
same,relative viability,[20]; first compound 0.6325 µM,0.965
same,relative viability,[20]; first compound 2 µM,0.762
same,relative viability,[20]; first compound 6.325 µM,0.833
same,relative viability,[20]; first compound 20 µM,0.0675
same,relative viability,[21]; first compound 0.2 µM,0.0362
same,relative viability,[21]; first compound 0.6325 µM,0.0885
same,relative viability,[21]; first compound 2 µM,0.0744
same,relative viability,[21]; first compound 6.325 µM,0.136
same,relative viability,[21]; first compound 20 µM,0.0091
same,relative viability,[22]; first compound 0.2 µM,1.14
same,relative viability,[22]; first compound 2 µM,0.979
same,relative viability,[22]; first compound 6.325 µM,1.02
same,relative viability,[22]; first compound 20 µM,1.05
